Like-named read-outs stand apart in the source and are kept apart here. Ends that are not written are not given here.
What was measured:
[1] = system: 3T3 Fibroblast Cell Membrane; details: 100 µg/ml, 24-hour incubation
Procedure: MCF-7 and MDA-MB 231 and 3T3 fibroblast cells were plated into sterile round slides with a diameter of 12 mm in the wells in 24-well plate such that each well contained 50,000 cells. The following day, the medium was replaced with a medium containing cryptonin at a concentration of 100 µg/ml. After 24-hour incubation, the cells were washed 2 times with 0.1 M sodium cacodylate buffer (pH 7.2) and fixed with 2.5% glutaraldehyde prepared in 0.1 M sodium cacodylate buffer for 2 hours. After the first fixation, the cells were washed again with 0.1 M sodium cacodylate buffer and fixed with 1% osmium tetroxide prepared in 0.2 M sodium cacodylate buffer for 30 minutes for the second time. After the cells were washed with 0.2 M sodium cacodylate buffer, they were taken in an increasing series of ethyl alcohol. Dehydration was performed by incubation 3 times with 30% alcohol for 5 minutes, 3 times with 50% alcohol for 5 minutes, 2 times with 70% alcohol for 10 minutes, 2 times with 85% alcohol for 15 minutes, 2 times with 95% alcohol for 15 minutes and 3 times with 100% alcohol for 10 minutes. After the slides were air-dried, they were coated with golden by BioRad SC 502 coating device. The cells were examined with Jeol Neoscope JCM-500 scanning electron microscope and their photographs were taken (Vitale et al., 1998; Hilchie et al., 2011).

erythrocytes = details: dose of 25-200 µg/ml; Park et al. (2007); cited from earlier work
MCF-7 cells [2] = details: 24 hours, positive control = 100%
Procedure: (§1) The lactate dehydrogenase (LDH) release assay is based on the measurement of a cytoplasmic enzyme, lactate dehydrogenase, activity released from damaged cells (Lobner, 2000) and is used for the assessment of cellular cytotoxicity. The cytotoxic effect of cryptonin on MCF-7 and MDA-MB 231 breast cancer cell lines was determined by measuring the activity of lactate dehydrogenase (LDH) enzyme released from damaged cells and a Cytotoxicity Detection Kit, LDH (Roche Molecular Diagnostics, Germany) was used for this purpose.
(§2) In LDH test, a negative control, a control group for spontaneous LDH release from the cells, and a positive control group for maximum LDH release were studied, as well as experimental groups to which peptide was administered. […] For this purpose, doses of 10, 25, 50 and 100 µg/ml were administered for MCF-7 cells and doses of 7.5, 10, 25 and 50 µg/ml were administered for MDA-MB 231 cells, for 24 hours. Cells were grown in the flasks of 75 cm, then removed with trypsin-EDTA and centrifuged. Cells were suspended in medium at 5000 cells per 100 µl, and 100 µl of cell suspension was transferred to 96-well plates. All control groups and experimental groups were studied with 3 wells and the experiment was repeated 3 times. After a 24-hour incubation, the media of the control groups were refreshed. The medium of the experimental groups was replaced with a medium containing different concentrations of peptide. The lactate dehydrogenase enzyme activity released from the cells after the cells were incubated with cryptonin for 24 hours was determined following the manufacturer's instructions. 5 µl of lysis solution (2% Triton-X-100) was added to the wells of the positive control group and the plate was incubated for 15 minutes at 37°C. To measure LDH activity, 100 µl of the freshly prepared reaction mixture containing catalyst (Diaphorase/NAD^+ mixture) and dye solution (iodotetrazolium chloride (INT) and sodium lactate) was added to each well. After 30 minutes of incubation in the dark at room temperature, the reaction was stopped by the addition of 50 µL of stop solution (1N HCl) to each well. The plates were shaken for 10 seconds on an orbital shaker and the spectrophotometric absorbance was measured at a test wavelength of 490 nm and a reference wavelength of 690 nm. The results were determined as % cytotoxicity. The mean absorbance values of the negative control were subtracted from the control and experimental groups, the positive control group was considered to be 100% cytotoxic and the cytotoxicities were calculated by comparing the control and experimental groups with positive control group using the following formula: [formula]

MDA-MB 231 cells [3] = details: 24 hours, positive control = 100%
Procedure: as §1, §2

MCF-7 cells [4] = assay: Type of cell death by acridine orange/ethidium bromide double staining; assay type: cell-based; details: 24 hours, mean +/- Standard Error
Procedure: (§3) Cells were stained with acridine orange/ethidium bromide double staining method to morphologically analyze whether cryptonin-induced cell death occurs by a necrotic pathway or by an apoptotic pathway. For this purpose, breast cancer cells were plated in a 24-well plate, with 10,000 cells being present in each well and incubated for 24 hours at the above-mentioned different concentrations of antimicrobial peptides. After incubation, a mixture of acridine orange (Sigma) (100 µg/ml) /ethidium bromide stain (Sigma) (100 µg/ml) prepared in PBS was applied to the cells and the cells were visualized using a FITC/CY3 filter on a fluorescent microscope (Nikon DS5MCU2). 200 cells from each group were counted according to the staining pattern. Cells were grouped as viable, apoptotic and necrotic according to the staining pattern of their nuclei (Spector et al., 1998). Viable cells were distinguished as having green chromatin nuclei in an organized structure, apoptotic cells were distinguished as having green or orange fragmented nuclei, and necrotic cells were distinguished as normal colored but having orange nuclei like normal cells (Ribble et al., 2005).

MDA-MB 231 cells [5] = assay: as above; assay type: cell-based; details: 24 hours, mean +/- Standard Error
Procedure: as §3

Procedure for 3T3 fibroblast cells: Yellow MTT is reduced to purple formazan crystals by the activity of mitochondrial dehydrogenases in viable cells. The intensity of the resulting purple color is directly proportional to the number of viable cells. MTT test was performed in 96-well plates. To this end, the cells grown in the flasks were removed by trypsin-EDTA, then collected by centrifugation and the cell pellet was suspended in the medium such that 5000 cells would be present per 100 µl. 5000 cells were plated in each well of the plate. In the following day, the medium in the wells was removed, fresh medium was added to the control group, and a medium containing anti-microbial peptide was added to the experimental groups at 8 different concentrations. This medium contained 10% serum.
Cells were exposed to different concentrations of antimicrobial peptide for 24 hours. At the end of this period, 30 µl of a solution of 3-(4,5-dimethylthiazol-2-yl)-2,5-diphenyltetrazolium bromide (MTT) was added to each well in the plate. […] The optical density was measured at a test wavelength of 570 nm and a reference wavelength of 630 nm. […] The mean absorbance values obtained from the control group were accepted as 100% cell viability and the values obtained from the wells treated with antimicrobial peptide were assessed versus control group.

GLLNGLALRLGKRALKKIIKRLCR [cryptonin]
effect on cell membrane (scanning electron microscope) [1]: disrupted the cell membrane integrity by forming pores, slits and blebs
hemolysis of erythrocytes (erythrocytes): 5%
LDH release (% cytotoxicity) (MCF-7 cells [2]; 25 µg/ml): 36.03±2.1%
LDH release (% cytotoxicity) (MCF-7 cells [2]; 50 ug/ml): 84.1±1.7%
LDH release (% cytotoxicity) (MCF-7 cells [2]; 100 µg/ml): 84.66±1.6%
LDH release (% cytotoxicity) (MDA-MB 231 cells [3]; 7.5 µg/ml): 7.09±0.7%
LDH release (% cytotoxicity) (MDA-MB 231 cells [3]; 10 µg/ml): 8.46±0.9%
LDH release (% cytotoxicity) (MDA-MB 231 cells [3]; 25 µg/ml): 24.24±2.1%
LDH release (% cytotoxicity) (MDA-MB 231 cells [3]; 50 µg/ml): 45.90±1%
fibroblast cell viability (3T3 fibroblast cells; dose range 25-200 µg/ml): significantly reduced
number of viable cells (3T3 fibroblast cells; less at 10 µg/ml, more at 25, 50, 100 and 200 µg/ml, 24 hours, cells representing normal cells): reduced the number of viable cells
Viable cell % (MCF-7 cells [4]; 10 µg/ml): 98.89±5%
Viable cell % (MCF-7 cells [4]; 25 µg/ml): 85.3±4.8%
Viable cell % (MCF-7 cells [4]; 50 µg/ml): 1.07±1.1%
Viable cell % (MCF-7 cells [4]; 100 µg/ml): 0.06±0.2%
Viable cell % (MCF-7 cells [4]; 200 µg/ml): 2.14±1.8%
Viable cell % (MDA-MB 231 cells [5]; 10 µg/ml): 95.88±1.6%
Viable cell % (MDA-MB 231 cells [5]; 25 µg/ml): 95.53±2.9%
Viable cell % (MDA-MB 231 cells [5]; 50 µg/ml): 45.13±4.1%
Viable cell % (MDA-MB 231 cells [5]; 100 µg/ml): 0.04±0.1%
Viable cell % (MDA-MB 231 cells [5]; 200 µg/ml): 0±0%
